system: Dd2 strain of P. falciparum; test: Activity against the Dd2 strain of P. falciparum (SYBR Green I, 72-h incubation); format: cell-based; settings: Plasmodium falciparum, DD2, 72 h, read-out: EC^50 Dd2
How it was run: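 SYBR Green I signal (ex 485, em 530 nm) measured growth, read after 24 h dark staining in saponin/Triton lysis buffer. Before that, compound-exposed Dd2 cultures (1% parasitemia, 1.0% hematocrit, 0.125% DMSO) grew 72 h at 37° C in low-oxygen gas. Background control: 20 μM mefloquine.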

| EC50 [µM] | SMILES |
| --- | --- |
| 4.5 | CC(=O)Oc1ccc2c3c([nH]c2c1)[C@H](CO)N(C(C)=O)CC31CCN(C(=O)Nc2ccccc2F)CC1 [Compound 138, (R)-1-(1-(benzo[d]thiazol-2-yl)-1′-(hydroxymethyl)-7′-methoxyspiro [piperidine-4,4′-py(R)-2′-acetyl-1-((2-fluorophenyl)carbamoyl)-1′-(hydroxymethyl)-1′,2′,3′,9′-tetrahydrospiro [piperidine-4,4′-pyrido[3,4-b]indol]-7′-ylacetaterido[3,4-b]indol]-2′(1′H,3′H,9′H)-yl)ethanone] |
| 1.72 | COc1ccc(S(=O)(=O)N2CCC3(CC2)CN(Cc2ccncc2)[C@H](CO)c2[nH]c4cc(OC)ccc4c23)cc1 [Compound 119, (S)-(7′-methoxy-1-((4-methoxyphenyl)sulfonyl)-2′-(pyridin-4-ylmethyl)-1′,2′,3′,9′-tetrahydrospiro [piperidine-4,4′-pyrido[3,4-b]indol]-1′-yl) methanol] |
| 0.62 | CCC(=O)N1CC2(CCN(C(=O)Nc3ccccc3F)CC2)c2c([nH]c3cc(OC)ccc23)[C@@H]1CO [Compound 20, (R)-N-(2-fluorophenyl)-1′-(hydroxymethyl)-7′-methoxy-2′-propionyl-1′,2′,3′,9′-tetrahydrospiro[piperidine-4,4′-pyrido[3,4-b]indole]-1-carboxamide] |
| 0.175 to 0.41 | COc1ccc2c3c([nH]c2c1)[C@H](CO)N(C(C)=O)CC31CCN(C(=O)Nc2ccccc2)CC1 [Compound 35, (R)-2′-acetyl-1′-(hydroxymethyl)-7′-methoxy-N-phenyl-1′,2′,3′,9′-tetrahydrospiro[piperidine-4,4′-pyrido[3,4-b]indole]-1-carboxamide] |
| 3.38 | COc1ccc2c3c([nH]c2c1)[C@H](CO)N(C(C)=O)CC31CCN(C(=O)Nc2ccc(Cl)cc2)CC1 [Compound 10] |
| 7.14 | C=CCOC(=O)N1CC2(CCN(C(=O)Oc3ccc([N+](=O)[O-])cc3)CC2)c2c([nH]c3cc(OC)ccc23)[C@@H]1CO [Compound 28, (R)-2′-allyl 1-(4-nitrophenyl) 1′-(hydroxymethyl)-7′-methoxy-3′,9′-dihydrospiro[piperidine-4,4′-pyrido[3,4-b]indole]-1,2′(1′H)-dicarboxylate] |
| 6.04 | CC(=O)N1CC2(CCN(C(=O)Nc3ccccc3F)CC2)c2c([nH]c3cc(O)ccc23)[C@@H]1CO [Compound 142, (R)-2′-acetyl-N-(2-fluorophenyl)-7′-hydroxy-1′-(hydroxymethyl)-1′,2′,3′,9′-tetrahydrospiro [piperidine-4,4′-pyrido[3,4-b]indole]-1-carboxamide] |
| 0.037 to 0.118 | COc1ccc2c3c([nH]c2c1)[C@H](CO)N(S(C)(=O)=O)CC31CCN(C(=O)Nc2ccccc2F)CC1 [Compound 53, (R)-N-(2-fluorophenyl)-1′-(hydroxymethyl)-7′-methoxy-2′-(methylsulfonyl)-1′,2′,3′,9′-tetrahydrospiro[piperidine-4,4′-pyrido[3,4-b]indole]-1-carboxamide] |
| 1.7 to 2.92 | COc1ccc2c3c([nH]c2c1)[C@H](CO)N(C(C)=O)CC31CCN(C(=O)N(C)c2ccccc2F)CC1 [Compound 63, (R)-2′-acetyl-N-(2-fluorophenyl)-1′-(hydroxymethyl)-7′-methoxy-N-methyl-1′,2′,3′,9′-tetrahydrospiro[piperidine-4,4′-pyrido[3,4-b]indole]-1-carboxamide] |
| 2.21 | CCC(=O)N1CCC2(CC1)CN(Cc1cccc(OC)c1)[C@@H](CO)c1[nH]c3cc(OC)ccc3c12 [Compound 107, (R)-1-(1′-(hydroxymethyl)-7′-methoxy-2′-(3-methoxybenzyl)-1′,2′,3′,9′-tetrahydrospiro [piperidine-4,4′-pyrido[3,4-b]indol]-1-yl)propan-1-one] |
| 0.577 | COc1ccc2c3c([nH]c2c1)[C@H](CO)N(C(C)=O)CC31CCN(C(=O)Nc2cccc(F)c2)CC1 [Compound 37, (R)-2′-acetyl-N-(3-fluorophenyl)-1′-(hydroxymethyl)-7′-methoxy-1′,2′,3′,9′-tetrahydrospiro[piperidine-4,4′-pyrido[3,4-b]indole]-1-carboxamide] |
| 0.321 to 0.719 | COc1ccc2c3c([nH]c2c1)[C@H](CO)N(C(C)=O)CC31CCN(C(=O)Nc2cc(F)ccc2F)CC1 [Compound 55, (R)-2′-acetyl-N-(2,5-difluorophenyl)-1′-(hydroxymethyl)-7′-methoxy-1′,2′,3′,9′-tetrahydrospiro [piperidine-4,4′-pyrido[3,4-b]indole]-1-carboxamide] |
| 0.485 | COc1ccc2c3c([nH]c2c1)[C@H](CN(C)C)N(C(C)=O)CC31CCN(C(=O)Nc2ccccc2F)CC1 [Compound 32, (S)-2′-acetyl-1′-((dimethylamino)methyl)-N-(2-fluoropheny1)-7′-methoxy-1′,2′,3′,9′-tetrahydrospiro[piperidine-4,4′-pyrido[3,4-b]indole]-1-carboxamide] |

| SMILES | EC50 [µM] |
| --- | --- |
| COc1ccc2c3c([nH]c2c1)[C@H](CO)N(Cc1ccc(Cl)cc1)CC31CCN(Cc2nccs2)CC1 [Compound 87, (R)-(2′-(4-chlorobenzyl)-7′-methoxy-1-(thiazol-2-ylmethyl)-1′,2′,3′,9′-tetrahydrospiro [piperidine-4,4′-pyrido[3,4-b]indol]-1′-yl)methanol] | 0.078 |
| COc1ccc2c3c([nH]c2c1)C(CO)N(C(=O)Nc1ccc(F)cc1)CC31CCN(Cc2cc(-c3ccccc3)on2)CC1 (stereo in doubt) [Compound 111, (R)-N-(4-fluorophenyl)-1′-(hydroxymethyl)-7′-methoxy-1-((5-phenylisoxazol-3-yl)methyl)-3′,9′-dihydrospiro [piperidine-4,4′-pyrido[3,4-b]indole]-2′(1′H)-carboxamide] | 0.451 |
| COc1ccc2c3c(n(C)c2c1)[C@@H](CO)N(C(=O)Nc1ccc(F)cc1)CC31CCN(Cc2cccnc2)CC1 [Compound 106, (S)-N-(4-fluorophenyl)-1′-(hydroxymethyl)-7′-methoxy-9′-methyl-1-(pyridin-3-ylmethyl)-3′,9′-dihydrospiro [piperidine-4,4′-pyrido[3,4-b]indole]-2′(1′H)-carboxamide] | 0.727 |
| COc1ccc2c3c([nH]c2c1)[C@H](CO[Si](C)(C)C(C)(C)C)N(C(C)=O)CC31CCN(CCc2ccccc2F)CC1 [Compound 19, (R)-1-(1′-(((tert-butyldimethylsilyl)oxy)methyl)-1-(2-fluorophenethyl)-7′-methoxyspiro[piperidine-4,4′-pyrido[3,4-b]indol]-2′(1′H,3′H,9′H)-yl)ethanone] | 1.2 |
| COc1ccc2c3c([nH]c2c1)[C@H](CO[Si](C)(C)C(C)(C)C)N(C(C)=O)CC31CCN(C(=O)Nc2cccnc2)CC1 [Compound 7] | 1.38 |
| COc1ccc2c3c([nH]c2c1)[C@@H](CO)N(Cc1cccc(F)c1)CC31CCN(Cc2ccccn2)CC1 [Compound 82, (S)-(2′-(3-fluorobenzyl)-7′-methoxy-1-(pyridin-2-ylmethyl)-1′,2′,3′,9′-tetrahydrospiro [piperidine-4,4′-pyrido[3,4-b]indol]-1′-yl)methanol] | 1.52 |

same assay, conditions: read-out: EC^50 Dd2

| EC50 [µM] | SMILES |
| --- | --- |
| 0.246 to 0.291 | COc1ccc2c3c([nH]c2c1)[C@H](CO)N(C(=O)Cc1ccccc1)CC31CCN(C(=O)Nc2ccccc2F)CC1 [Compound 12] |

— patent US9428507B2, “Compounds for the treatment of malaria” (The Broad Institute, Inc., priority 2013, dated 2016)
